Results as given in US20070249519A1, “METHODS FOR THE UPREGULATION OF GLUT4 VIA MODULATION OF PPAR DELTA IN ADIPOSE TISSUE AND FOR THE TREATMENT OF DISEASE” (KALYPSYS, INC., priority 2006, published 2007).
pEC50: −log10 of the molar value.

Key:
GLUT4 translocation = settings: ZDF ob/ob and DIO C57BL/6 mice; cited from earlier work
PPAR gamma = target: T1, PPAR gamma (Homo sapiens, UniProt P37231); settings: GAL4 chimera, CV-1 cells, luciferase; cited from earlier work
T1 construct: expressed in transfected cells; host or cells: CV-1 cells
T1 sequence (P37231 238-503 limits assumed): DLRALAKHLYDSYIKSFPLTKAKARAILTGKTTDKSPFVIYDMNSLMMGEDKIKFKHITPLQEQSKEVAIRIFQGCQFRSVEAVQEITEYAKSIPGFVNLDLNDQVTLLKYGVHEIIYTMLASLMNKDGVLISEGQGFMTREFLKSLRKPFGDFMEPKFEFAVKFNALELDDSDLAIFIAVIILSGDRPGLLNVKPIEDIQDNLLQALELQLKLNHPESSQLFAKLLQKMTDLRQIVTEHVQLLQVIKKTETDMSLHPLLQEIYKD

PPAR delta = target: T2, PPAR delta (Homo sapiens, UniProt Q03181); settings: GAL4 chimera, CV-1 cells, luciferase; cited from earlier work
T2 construct: expressed in transfected cells; host or cells: CV-1 cells
T2 sequence (Q03181 211-439 limits assumed): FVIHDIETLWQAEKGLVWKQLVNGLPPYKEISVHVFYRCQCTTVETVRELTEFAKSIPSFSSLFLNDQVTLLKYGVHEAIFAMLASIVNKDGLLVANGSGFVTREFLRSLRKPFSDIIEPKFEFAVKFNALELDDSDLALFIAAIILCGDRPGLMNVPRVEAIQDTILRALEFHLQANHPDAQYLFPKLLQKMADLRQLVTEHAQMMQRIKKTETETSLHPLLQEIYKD

PPAR alpha = target: T3, PPAR alpha (Homo sapiens, UniProt Q07869); settings: GAL4 chimera, CV-1 cells, luciferase; cited from earlier work
T3 construct: expressed in transfected cells; host or cells: CV-1 cells
T3 sequence (Q07869 239-466 limits assumed): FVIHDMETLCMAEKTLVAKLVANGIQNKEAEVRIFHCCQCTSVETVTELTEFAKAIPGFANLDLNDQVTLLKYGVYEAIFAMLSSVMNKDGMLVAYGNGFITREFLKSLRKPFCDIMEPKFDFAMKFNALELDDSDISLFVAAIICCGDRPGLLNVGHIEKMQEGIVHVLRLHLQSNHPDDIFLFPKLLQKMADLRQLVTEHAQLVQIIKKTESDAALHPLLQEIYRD

GLUT4 = settings: in vivo; cited from earlier work
[1] = in vivo; cited from earlier work
GLUT4 mRNA expression [2] = experiment: GLUT4 mRNA expression in adipose tissue, DIO model in mice; assay type: in vivo, C57B1/6j mice; settings: 3 or 9 mg/kg
From the text: (§1) Metabolic syndrome in humans is characterized by abdominal obesity, high triglycerides, impaired fasting glucose and hyperinsulinemia. In the DIO model, mice are fed high fat diet (HFD, Research diet D12492, Research Diet, N.J.) diet (58% lard) for the entire period of the study. Compared to normal chow (NC, Harlan-Tekland #8604, WI) fed animals the HF fed mice develop several features of metabolic syndrome such as hypertriglyceridemia, hyperinsulinemia and mild hyperglycemia, as early as two weeks, on this diet. […] Additionally, GLUT4 expression is down regulated in HF-fed C57B1/6j mice after 4 weeks. […]
(§2) C57B1/6j mice (n=5-6 for each group) were fed ad libitum with either the HFD (58% fat) or NC (5%) diet for 4 weeks prior to start of experiments, and throughout the course of each experiment (Days −27 to Day 60). […] Plasma Insulin, and glucose levels under fasting and postprandial (PP) conditions were measured using the Ultrasensitive Mouse Insulin ELISA kit (Mercodia) and glucometer (Accu-Check Compact, Roche) respectively. […] Tissues were collected at sacrifice at 3-4 hours post dosing with compound 1 or compound 2 in a fed state and GLUT4 mRNA expression was assessed using GLUT4 specific probes and branched DNA (bDNA) analyses (Epicenter Biotechnologies).

[3] = Glucose tolerance testing (GTT), DIO model in mice; assay type: in vivo, C57B1/6j mice
From the text: Metabolic syndrome in humans is characterized by abdominal obesity, high triglycerides, impaired fasting glucose and hyperinsulinemia. In the DIO model, mice are fed high fat diet (HFD, Research diet D12492, Research Diet, N.J.) diet (58% lard) for the entire period of the study. Compared to normal chow (NC, Harlan-Tekland #8604, WI) fed animals the HF fed mice develop several features of metabolic syndrome such as hypertriglyceridemia, hyperinsulinemia and mild hyperglycemia, as early as two weeks, on this diet. […] Additionally, GLUT4 expression is down regulated in HF-fed C57B1/6j mice after 4 weeks. This model was used to evaluate the pharmacological effects of a Compound 1 and Compound 2 in mitigating several features of HFD induced metabolic syndrome in rodents.
(§3) C57B1/6j mice (n=5-6 for each group) were fed ad libitum with either the HFD (58% fat) or NC (5%) diet for 4 weeks prior to start of experiments, and throughout the course of each experiment (Days −27 to Day 60). Starting on Day 1, mice were dosed BID with either 3 mg/kg Compound 1+vehicle, 9 mg/kg Compound 1+vehicle, 3 mg/kg Compound 2+vehicle, or vehicle alone, for the entire period of the study (day 0-60). Plasma Insulin, and glucose levels under fasting and postprandial (PP) conditions were measured using the Ultrasensitive Mouse Insulin ELISA kit (Mercodia) and glucometer (Accu-Check Compact, Roche) respectively. Appropriate dilutions were made in each case to ensure that the samples remained in the linear range of the standard curve. Animals were sacrificed and levels of Compound 1 and Compound 2 in adipose and muscle tissue were assayed using LC/Mass Spec. Tissues were collected at sacrifice at 3-4 hours post dosing with compound 1 or compound 2 in a fed state and GLUT4 mRNA expression was assessed using GLUT4 specific probes and branched DNA (bDNA) analyses (Epicenter Biotechnologies).

[4] = Compound level in adipose tissue by LC/Mass Spec, DIO model in mice; assay type: in vivo, C57B1/6j mice; settings: 8 weeks of treatment, 3 or 9 mg/kg/d Compound 1 vs 3 mg/kg/day Compound 2
Method: as §3

GLUT4 mRNA expression [5] = experiment: GLUT4 mRNA expression in muscle tissue, DIO model in mice; assay type: in vivo, C57B1/6j mice; settings: 14 weeks of treatment, 3 or 9 mg/kg, NC or HFD, vs vehicle
From the text: as §1, §2

[6] = Insulin tolerance testing (ITT), DIO model in mice; assay type: in vivo, C57B1/6j mice; settings: NC and HFD cohorts, 3 and 9 mg/kg
From the text: as §1, §2

SMILES | pEC50 (PPAR gamma) | pEC50 (PPAR delta) | pEC50 (PPAR alpha) | also measured
CC(=O)NCCOC(=O)[C@H](Oc1cccc(C(F)(F)F)c1)c1ccc(Cl)cc1 [MBX-102] |  |  |  | insulin sensitivity and GLUT4 translocation in adipose and muscular tissue (GLUT4 translocation): enhanced insulin sensitivity and GLUT4 translocation
C[C@@H]1CN(Cc2ccc(OC(F)(F)F)cc2)C[C@H](C)N1S(=O)(=O)c1cccc2c1CC(C(=O)O)C2 (mixture of isomers) [Compound 3, 4-[cis-2,6-Dimethyl-4-(4-trifluoromethoxy-benzyl)-piperazine-1-sulfonyl]-indan-2-carboxylic acid] | 4.00 to 5.30 | > 5.30 | 4.00 to 5.30 | 
Cc1cc(SCc2sc(-c3ccc(C(F)(F)F)cc3)nc2C)ccc1OCC(=O)O [Compound 2, {2-Methyl-4-[4-methyl-2-(4-trifluoromethyl-phenyl)-thiazol-5-ylmethylsulfanyl]-phenoxy}-acetic acid] |  |  |  | expression of GLUT4 in rat skeletal muscle (GLUT4): increased expression of GLUT4; tissue partitioning [1]: preferentially partitions into muscular tissue
C[C@@H]1CN(Cc2ccc(OC(F)(F)F)cc2)C[C@H](C)N1S(=O)(=O)c1cccc2c1C[C@@H](C(=O)O)C2 [Compound 3A, (S)-4-[cis-2,6-Dimethyl-4-(4-trifluoromethoxy-benzyl)-piperazine-1-sulfonyl]-indan-2-carboxylic acid] | 4.00 to 5.30 | > 5.30 | < 4.00 | 
C[C@@H]1CN(c2ccc(OC(F)(F)F)cc2)C[C@H](C)N1S(=O)(=O)c1cccc2c1C[C@@H](C(=O)O)C2 [Compound 1A, (S)-4-[cis-2,6-Dimethyl-4-(4-trifluoromethoxy-phenyl)-piperazine-1-sulfonyl]-indan-2-carboxylic acid] | < 4.00 | > 5.30 | < 4.00 | 
C[C@@H]1CN(c2ccc(OC(F)(F)F)cc2)C[C@H](C)N1S(=O)(=O)c1cccc2c1CC(C(=O)O)C2 (mixture of isomers) [Compound 1, 4-[cis-2,6-Dimethyl-4-(4-trifluoromethoxy-phenyl)-piperazine-1-sulfonyl]-indan-2-carboxylic acid] | < 4.00 | > 5.30 | < 4.00 | GLUT4 mRNA expression in murine adipose tissue (FIG. 3) (GLUT4 mRNA expression [2]; 8 weeks of treatment, HFD cohort): upregulated; GLUT4 mRNA expression in murine adipose tissue (FIG. 2) (GLUT4 mRNA expression [2]; 14 days of treatment, HFD fed mice): normalized expression of GLUT-4; plasma glucose during GTT, effect by dose (FIG. 6) ([3]; HFD cohort, 3 and 9 mg/kg): an effect was seen at both doses; plasma glucose during GTT (FIGS. 5 and 6) ([3]; NC and HFD cohorts): increased glucose disposal; plasma insulin during GTT (FIGS. 7 and 8) ([3]; NC and HFD cohorts): decreased insulin levels; uptake (concentration) in murine adipose tissue (FIG. 4) [4]: preferentially uptaken over Compound 2; GLUT4 mRNA expression in murine muscle tissue (FIG. 1) (GLUT4 mRNA expression [5]): no significant increase; plasma glucose during ITT (FIGS. 9 and 10) [6]: attenuated plasma glucose output
